Where a SMILES comes first, the peptide text is derived from it. [ ]: non-standard residue; d: D form. The star is where a group is joined. dPhe(4-NHCONH2) = NC(=O)Nc1ccc(C[C@@H](N)C(=O)O)cc1; Dihydroorotyl(S) = O=C1C[C@@H](C(=O)*)NC(=O)N1; dPhe(4-Cl) = N[C@H](Cc1ccc(Cl)cc1)C(=O)O; Phe(4-NH2) = Nc1ccc(C[C@H](N)C(=O)O)cc1; d2Nal = N[C@H](Cc1ccc2ccccc2c1)C(=O)O; Lys(iPr) = CC(C)NCCCC[C@H](N)C(=O)O; d3Pal = N[C@H](Cc1cccnc1)C(=O)O
Legend:
[1] = tested on: committed hematopoietic progenitor cells; assay: Colony-forming unit activity of BM from L-TBI mice; assay type: in vivo, mouse; conditions: day 7 after L-TBI
Procedure: To investigate the specific regenerative effects mediated by LHRH-Ant treatment on the hematopoietic stem and progenitor cell (HSPC) compartment, BM were analyzed at several time points after L-TBI. […] To determine hematopoietic functional potential, colony-forming unit activity was next quantified to determine the effects of LHRH-Ant on the recovery of committed hematopoietic progenitor cells. […] Consistent with these functional findings, on day 14 after L-TBI, expansion of LSKs as well as their downstream progenitors in mice given LHRH-Ant were found (FIGS. 2F, 2G). […] However, given the changes in HSC phenotype after radiation, the standard competitive repopulation functional assay was adapted to evaluate the presence and relative quantity of functional HSCs after L-TBI. […]
Colony-Forming Cell (CFC) and Cobblestone Areas Forming Cell (CAFC): Assays were performed as previously described with a minor modifications^50. […] Colonies were scored after 10 days of incubation at 37° C. and 5% CO2. […] After 3 weeks of co-culture, CAFCs were scored as phase-dark hematopoietic clones of at least 5 cells beneath the stromal layer using an inverted microscope.

[2] = tested on: mice exposed to L-TBI; assay: Complete blood counts (peripheral blood recovery) after L-TBI; assay type: in vivo, mouse; conditions: vs vehicle
Description: Description. Inhibition of sex steroids, which can be achieved in a reversible fashion pharmacologically, is a well-described strategy to promote lymphopoiesis in the BM and thymus^8,7,14,15. Although the most common method of sex steroid ablation clinically has been to use LHRH-agonists, it was described that an LHRH-Antagonist represents a more rational approach to promote immediate ablation of sex steroids for immune regeneration as it is far more rapid and abrogates the initial surge in sex steroids that LHRH-Agonist cause^16. Taken together with the impact of sex steroid inhibition on HSC function and the rapid regenerative effects of LHRH-Ant, it was hypothesized that LHRH-Ant could represent a rational non-cellular medical countermeasure for mitigating radiation injury and promoting hematopoietic regeneration when administered after hematopoietic insult. To test this hypothesis, a lethal TBI (L-TBI) dose of 840cGy that mediated lethality in more than 90% of mice (FIG. 1A) was used. […] Mouse lethality was a result of bone marrow failure, since transplant of BM Lin-Sca1^+tkit^+ (LSK) cells 3 days after L-TBI completely rescued all mice (FIG. 1B). […] It was then tested if LHRH-Ant could mediate even greater mouse survival when administered multiple times.
Methods. […] To assess mouse survival after radiation, mice were monitored for up to 60 days after TBI. […]

## CC(=O)N[C@H](Cc1ccc2ccccc2c1)C(=O)N[C@H](Cc1ccc(Cl)cc1)C(=O)N[C@H](Cc1cccnc1)C(=O)N[C@@H](CO)C(=O)N[C@@H](Cc1ccc(NC(=O)[C@@H]2CC(=O)NC(=O)N2)cc1)C(=O)N[C@H](Cc1ccc(NC(N)=O)cc1)C(=O)N[C@@H](CC(C)C)C(=O)N[C@@H](CCCCNC(C)C)C(=O)N1CCC[C@H]1C(=O)N[C@H](C)C(N)=O [LHRH-Ant, Degarelix] (Ac-[d2Nal][dPhe(4-Cl)][d3Pal]S[Phe(4-NH2)](Dihydroorotyl(S))[dPhe(4-NHCONH2)]L[Lys(iPr)]P[dA]-NH2)
[1]
  BFU-E colonies: significant increase
  CFU-GM colonies: significant increase
[2]
  complete blood counts recovery after L-TBI: recovered after L-TBI

Reference: US12295973B2 (Fred Hutchinson Cancer Center, priority 2017, dated 2025)
